Data taken from ChEMBL document CHEMBL5154781, “Discovery of Novel Sertraline Derivatives as Potent Anti-Cryptococcus Agents” (J Med Chem, 2022).
Converted amounts (≈) assume the structure as drawn. The source made the active and inactive calls. The rule behind the calls is not given here.

Columns and labels:
Cryptococcus neoformans [1] = test: microbe, parasite or virus in culture; format: functional, organism-based; conditions: H99, 72 h
Description: Anti-cryptococcal activity against Cryptococcus neoformans H99 assessed as inhibition of fungal growth incubated for 72 hrs by microdilution method

Cryptococcus neoformans [2] = test: Anti-cryptococcal activity against Cryptococcus neoformans H99 assessed as inhibition of fungal growth at 1 ug/ml measured after 72 hrs by time-growth curve assay; format: functional, organism-based; conditions: dose 1.0 µg/ml
Aspergillus fumigatus [3] = test: microbe, parasite or virus in culture; format: functional, organism-based; conditions: 023-2, 48 h
Description: Antifungal activity against Aspergillus fumigatus 023-2 assessed as inhibition of fungal growth incubated for 48 hrs by microdilution method

[Candida] auris [4] = Antifungal activity against Candida auris 15448 assessed as inhibition of fungal growth incubated for 48 hrs by microdilution method; format: functional, organism-based; conditions: Candidozyma auris, 15448, 48 h
Cryptococcus neoformans [5] = test: Inhibition of Cryptococcus neoformans H99 delta5,6-desaturase assessed as decrease in ergosterol level at 1 ug/ml incubated for 24 hrs by GC-MS analysis; conditions: dose 1.0 µg/ml
Cryptococcus neoformans [6] = test: Inhibition of Cryptococcus neoformans H99 delta5,6-desaturase assessed as upregulation of ERG24 gene expression at 2 ug/ml incubated for 24 hrs by RT-PCR analysis; conditions: dose 2.0 µg/ml
Pichia kudriavzevii = test: microbe, parasite or virus in culture; format: functional, organism-based; conditions: Pichia kudriavzevii, 10153, 48 h
Description: Antifungal activity against Candida krusei 10153 assessed as inhibition of fungal growth incubated for 48 hrs by microdilution method

Cryptococcus neoformans [7] = test: Inhibition of Cryptococcus neoformans H99 delta5,6-desaturase assessed as blockade of ergosterol biosynthesis pretreated at 3 ug/ml followed by addition of ERG enzymes incubated for 24 hrs in presence of NADPH by GC-MS analysis; conditions: dose 3.0 µg/ml
[8] = Metabolic stability in mouse liver microsomes assessed as clearance; format: ADME, Microsome
Candida albicans [9] = test: Upregulation of ERG11 in Candida albicans SC3514 at 0.5 ug/ml incubated for 24 hrs by RT-PCR analysis; format: functional; conditions: dose 0.5 µg/ml
Cryptococcus neoformans [10] = test: Anti-cryptococcal activity against Cryptococcus neoformans H99 assessed as inhibition of fungal growth at 8 ug/ml measured after 72 hrs by time-growth curve assay; format: functional; design: scale not given: the % may be the effect or the level left; conditions: dose 8 µg/ml
[Candida] auris [11] = microbe, parasite or virus in culture; format: functional, organism-based; conditions: Candidozyma auris, 0030, 48 h
Description: Antifungal activity against Candida auris 0030 assessed as inhibition of fungal growth incubated for 48 hrs by microdilution method

Nakaseomyces glabratus [12] = test: microbe, parasite or virus in culture; format: functional, organism-based; conditions: Nakaseomyces glabratus, 9073, 48 h
Description: Antifungal activity against Candida glabrata 9073 assessed as inhibition of fungal growth incubated for 48 hrs by microdilution method

Nakaseomyces glabratus [13] = test: microbe, parasite or virus in culture; format: functional, organism-based; conditions: Nakaseomyces glabratus, 9025, 48 h
Description: Antifungal activity against Candida glabrata 9025 assessed as inhibition of fungal growth incubated for 48 hrs by microdilution method

Cryptococcus neoformans [14] = test: Inhibition of Cryptococcus neoformans H99 delta5,6-desaturase assessed as upregulation of ERG1 gene expression at 2 ug/ml incubated for 24 hrs by RT-PCR analysis; conditions: dose 2.0 µg/ml
Cryptococcus neoformans [15] = test: Inhibition of Cryptococcus neoformans H99 delta5,6-desaturase assessed as upregulation of ERG4 gene expression at 2 ug/ml incubated for 24 hrs by RT-PCR analysis; conditions: dose 2.0 µg/ml
Candida albicans [16] = test: microbe, parasite or virus in culture; format: functional, organism-based; conditions: SC5314, 48 h
Description: Antifungal activity against Candida albicans SC5314 assessed as inhibition of fungal growth incubated for 48 hrs by microdilution method

Cryptococcus neoformans [17] = test: Inhibition of Cryptococcus neoformans H99 delta5,6-desaturase assessed as upregulation of ERG5 gene expression at 2 ug/ml incubated for 24 hrs by RT-PCR analysis; conditions: dose 2.0 µg/ml
Cryptococcus = test: Fungicidal activity against Cryptococcus assessed as ratio of MFC to MIC; format: functional
Cryptococcus neoformans [18] = test: Inhibition of Cryptococcus neoformans H99 delta5,6-desaturase assessed as upregulation of ERG3 gene expression at 2 ug/ml incubated for 24 hrs by RT-PCR analysis; conditions: dose 2.0 µg/ml
Cryptococcus neoformans [19] = test: Inhibition of Cryptococcus neoformans H99 delta5,6-desaturase assessed as upregulation of ERG3 under stress condition at 0.25 to 1 ug/ml incubated for 24 hrs by RT-PCR analysis; conditions: dose 0.25-1 µg/ml, DDE = dose-dependent effect
Cryptococcus neoformans [20] = test: Inhibition of Cryptococcus neoformans H99 delta5,6-desaturase assessed as upregulation of ERG2 gene expression at 2 ug/ml incubated for 24 hrs by RT-PCR analysis; conditions: dose 2.0 µg/ml
[21] = Cytotoxicity against HUVEC cells; conditions: human
Candida albicans [22] = test: Antifungal activity against Candida albicans SC3514 assessed as low level of ergosta-7,22-dien-3-ol at 2 ug/ml incubated for 24 hrs in presence of NADPH by GC-MS analysis; format: functional, organism-based; conditions: dose 2.0 µg/ml
Cryptococcus neoformans [23] = test: Inhibition of Cryptococcus neoformans H99 delta5,6-desaturase assessed as change in sterol content at 2 ug/ml incubated for 24 hrs by GC-MS analysis; conditions: dose 2.0 µg/ml
Candida tropicalis = test: microbe, parasite or virus in culture; format: functional, organism-based; conditions: Candida tropicalis, 10186, 48 h
Description: Antifungal activity against Candida tropicalis 10186 assessed as inhibition of fungal growth incubated for 48 hrs by microdilution method

Cryptococcus neoformans [24] = test: Inhibition of biofilm formation in Cryptococcus neoformans H99 at 0.5 to 8 ug/ml incubated for 24 hrs by XTT reduction assay; format: functional, organism-based; conditions: dose 0.5-8 µg/ml, DDE = dose-dependent effect
Cryptococcus neoformans [25] = test: Anti-cryptococcal activity against Cryptococcus neoformans H99 assessed as cell membrane damage at 4 ug/ml incubated for 8 hrs by transmission electron microscopy; format: functional, organism-based; conditions: dose 4.0 µg/ml
Aspergillus fumigatus [26] = test: microbe, parasite or virus in culture; format: functional, organism-based; conditions: Aspergillus fumigatus, 7544, 48 h
Description: Antifungal activity against Aspergillus fumigatus 7544 assessed as inhibition of fungal growth incubated for 48 hrs by microdilution method

Cryptococcus neoformans [27] = test: Inhibition of Cryptococcus neoformans H99 delta5,6-desaturase assessed as upregulation of ERG11 at 0.25 to 1 ug/ml incubated for 24 hrs by RT-PCR analysis; conditions: dose 0.25-1 µg/ml, DDE = dose-dependent effect
Candida albicans [28] = test: Antifungal activity against Candida albicans SC3514 assessed as decrease in ergosterol content at 2 ug/ml incubated for 24 hrs in presence of NADPH by GC-MS analysis; format: functional, organism-based; conditions: dose 2.0 µg/ml
[29] = microbe, parasite or virus in culture; format: functional; conditions: Cryptococcus; time 72 hrs
Description: Anti-cryptococcal activity against Cryptococcus assessed as inhibition of fungal growth incubated for 72 hrs by microdilution method

Candida albicans [30] = test: Upregulation of ERG3 in Candida albicans SC3514 at 0.5 ug/ml incubated for 24 hrs by RT-PCR analysis; format: functional; conditions: dose 0.5 µg/ml
Cryptococcus neoformans [31] = test: Fungicidal activity against Cryptococcus neoformans H99 assessed as fungal growth inhibition incubated upto 72 hrs by time-fungicidal curve assay; format: functional
Cryptococcus neoformans [32] = test: Inhibition of Cryptococcus neoformans H99 delta5,6-desaturase assessed as upregulation of ERG11 gene expression at 2 ug/ml incubated for 24 hrs by RT-PCR analysis; conditions: dose 2.0 µg/ml
Cryptococcus neoformans [33] = test: Inhibition of biofilm formation in Cryptococcus neoformans H99 at 2 ug/ml incubated for 24 hrs by XTT reduction assay; format: functional
Candida albicans [34] = test: microbe, parasite or virus in culture; format: functional, organism-based; conditions: Candida albicans, 904, 48 h
Description: Antifungal activity against Candida albicans 904 assessed as inhibition of fungal growth incubated for 48 hrs by microdilution method

Cryptococcus neoformans [35] = test: Inhibition of Cryptococcus neoformans H99 delta5,6-desaturase assessed as increase in ergosta-7,22-dien-3-ol levels at 0.125 to 2 ug/ml incubated for 24 hrs by GC-MS analysis; conditions: dose 0.125-2 µg/ml, DDE = dose-dependent effect
[Candida] auris [36] = microbe, parasite or virus in culture; format: functional, organism-based; conditions: Candidozyma auris, 0029, 48 h
Description: Antifungal activity against Candida auris 0029 assessed as inhibition of fungal growth incubated for 48 hrs by microdilution method

[37] = […] in ICR mouse model of Cryptococcal meningitis infected with Cryptococcus neoformans H99 assessed as median survival time at 15 mg/kg, IG administered daily (reference value: 11 day); format: organism-based; conditions: in vivo, po, 264 h
[38] = Metabolic stability in mouse liver microsomes assessed as half life; format: ADME, Microsome
Candida albicans [39] = test: microbe, parasite or virus in culture; format: functional, organism-based; conditions: Candida albicans, 0304103, 48 h
Description: Antifungal activity against Candida albicans 0304103 assessed as inhibition of fungal growth incubated for 48 hrs by microdilution method

Cryptococcus neoformans [40] = test: Anti-cryptococcal activity against Cryptococcus neoformans H99 assessed as efflux of cell contents at 4 ug/ml incubated for 8 hrs by transmission electron microscopy; format: functional, organism-based; conditions: dose 4.0 µg/ml
Cryptococcus neoformans [41] = test: Anti-cryptococcal activity against Cryptococcus neoformans H99 assessed as cell membrane damage at 0.5 to 4 ug/ml incubated for 8 hrs by transmission electron microscopy; format: functional, organism-based; conditions: dose 0.5-4 µg/ml, DDE = dose-dependent effect
Cryptococcus neoformans [42] = test: Inhibition of Cryptococcus neoformans H99 delta5,6-desaturase assessed as blockade of ergosterol biosynthesis at 0.5 ug/ml pretreated with ERG enzymes followed by compound addition incubated for 24 hrs in presence of NADPH by GC-MS analysis; conditions: dose 0.5 µg/ml

CN(C)C1CCC(c2ccc(Cl)c(Cl)c2)c2sccc21.Cl (stereo not given)
IC50 (Cryptococcus neoformans [1]): 32 µg/mL

Cl.Clc1ccc(C2CCC(NCCC3CCOCC3)c3ccsc32)cc1Cl (stereo not given)
Activity (Cryptococcus neoformans [2]): Active | IC50 (Aspergillus fumigatus [3]): 32 µg/mL | IC50 ([Candida] auris [4]): 8 µg/mL | Activity (Cryptococcus neoformans [5]): Active | Activity (Cryptococcus neoformans [6]): Active | IC50 (Pichia kudriavzevii): 8 µg/mL | Activity (Cryptococcus neoformans [7]): Active | CLH [8]: 136 µL/min/mg | Activity (Candida albicans [9]): Active | Activity (Cryptococcus neoformans [10]): 100% | IC50 ([Candida] auris [11]): 8 µg/mL | IC50 (Nakaseomyces glabratus [12]): 32 µg/mL | IC50 (Nakaseomyces glabratus [13]): 8 µg/mL | Activity (Cryptococcus neoformans [14]): Active | Activity (Cryptococcus neoformans [15]): Active | IC50 (Candida albicans [16]): 32 µg/mL | Activity (Cryptococcus neoformans [17]): Active | Ratio (Cryptococcus): 7.47 | Activity (Cryptococcus neoformans [18]): Active | Activity (Cryptococcus neoformans [19]): Dde | Activity (Cryptococcus neoformans [20]): Active | IC50 [21]: 20.2 µM | Activity (Candida albicans [22]): Active | Activity (Cryptococcus neoformans [23]): Active | IC50 (Candida tropicalis): 32 µg/mL | inhibition (Cryptococcus neoformans [24]): Dde | Activity (Cryptococcus neoformans [25]): Active | IC50 (Aspergillus fumigatus [26]): 32 µg/mL | IC50 (Cryptococcus neoformans [1]): 0.5 µg/mL | Activity (Cryptococcus neoformans [27]): Dde | Activity (Candida albicans [28]): Active | MIC50 [29]: 0.62 µg/mL | Activity (Candida albicans [30]): Active | MFC (Cryptococcus neoformans [31]): 8 µg/mL | Activity (Cryptococcus neoformans [32]): Active | inhibition at 2 µg/mL (Cryptococcus neoformans [33]): 50% | IC50 (Candida albicans [34]): 32 µg/mL | Activity (Cryptococcus neoformans [35]): Dde | IC50 ([Candida] auris [36]): 16 µg/mL | MST [37]: 14 days | half-life [38]: 40.1 min | IC50 (Candida albicans [39]): 32 µg/mL | Activity (Cryptococcus neoformans [40]): Active | Activity (Cryptococcus neoformans [41]): Dde | Activity (Cryptococcus neoformans [42]): Active

Cl.Clc1ccc(C2CCC(NCCC3CCCCC3)c3ccsc32)c(Cl)c1 (stereo not given)
IC50 (Cryptococcus neoformans [1]): 4 µg/mL

Cl.Clc1ccc(C2CCC(NC3CCOCC3)c3ccsc32)cc1Cl (stereo not given)
IC50 (Cryptococcus neoformans [1]): 4 µg/mL

Cl.Clc1ccc(C2CCC(NCc3ccccc3)c3ccsc32)cc1Cl (stereo not given)
IC50 (Cryptococcus neoformans [1]): 32 µg/mL

Cl.Clc1ccc(C2CCC(NCc3ccncc3)c3ccsc32)cc1Cl (stereo not given)
IC50 (Cryptococcus neoformans [1]): 16 µg/mL

Cl.O=C(CNC1CCC(c2ccc(Cl)c(Cl)c2)c2sccc21)N1CCCCC1 (stereo not given)
IC50 (Cryptococcus neoformans [1]): 8 µg/mL

CN[C@H]1CC[C@@H](c2ccc(Cl)c(Cl)c2)c2ccccc21 [SERTRALINE]
CLH [8]: 132 µL/min/mg | MST [37]: 11.5 days | half-life [38]: 41.5 min

CNC1CC(c2ccc(Cl)c(Cl)c2)c2ccccc21.Cl (stereo not given)
IC50 (Cryptococcus neoformans [1]): 16 µg/mL

Cl.Clc1ccc(C2CCC(NC3CC3)c3ccsc32)cc1Cl (stereo not given)
IC50 (Cryptococcus neoformans [1]): 16 µg/mL

O=C(c1ccc(F)cc1)C1CCN(CCn2c(=O)[nH]c3ccccc3c2=O)CC1 [KETANSERIN]
CLH [8]: 271 µL/min/mg | half-life [38]: 20.1 min

Nc1nc(=O)[nH]cc1F [FLUCYTOSINE]
IC50 (Cryptococcus neoformans [1]): 2 µg/mL (≈ 15.5 µM)

CNC1CCC(c2ccc(Cl)c(Cl)c2)c2sccc21.Cl (stereo not given)
IC50 (Cryptococcus neoformans [1]): 8 µg/mL
